In publication PMC2362091, “Expression of V1A and GRP receptors leads to cellular transformation and increased sensitivity to substance-P analogue-induced growth inhibition” (British Journal of Cancer, 2005):
Values after ≈ are worked out from the molar mass of the structure shown. Where two headings read alike, the source gives them in different places. Square brackets hold non-standard residues; d marks the D form. Peptide text beside a SMILES is read from it. NMeF = CN[C@@H](Cc1ccccc1)C(=O)O

Columns and labels:
CHO-V1Ar cells = experiment: cells; format: cell-based
Procedure: (§1) In some assays, MTT (3-[4,5-dimethylthiazol-2yl]-2,5-diphenyl tetrazolium bromide) formazan production (Sigma) was used to measure proliferation as per the manufacturer's instructions.
(§2) Figure 4 Effect of neuropeptide on chemosensitivity. Wild-type CHO-K1 cells (left) and cells expressing the V1A (middle) or GRP (right) receptor were plated at a density of 1e^4 cells per well of a 96-well tissue culture plate in DMEM with 10% FCS and incubated overnight 37°C. […] Cell viability was assessed by MTT staining.

[1] = tested on: untransfected CHO-K1 cells; experiment: Intracellular Ca2+ (FURA-2), untransfected cells; format: cell-based; settings: data not shown
[2] = tested on: ERK phosphorylation in untransfected CHO cells; experiment: ERK phosphorylation (Western blot), untransfected CHO cells; format: cell-based; settings: data not shown
Procedure: (§3) Quiescent cell cultures in six-well plates were treated as described in figure legends and lysed at 4°C in 0.25 ml lysis buffer containing; 25 mM HEPES pH 7.4, 0.3 M NaCl, 1.5 mM MgCl2, 0.2 mM EDTA, 0.5% Triton X-100, 20 mM β-glycerphosphate, 0.5 mM dithiothreitol, 1 mM sodium orthovanadate and protease inhibitors (Boehringer Mannheim, Sussex, UK; prepared as per the manufacturer's instructions). Lysates were clarified by centrifugation, equilibrated for protein using BCA protein assay reagent (Perbio Science, Cheshire, UK) and denatured by boiling (5 min) in SDS–PAGE loading buffer. In all, 20 μl lysate/lane was resolved on 12% SDS–PAGE gels and electroblotted onto nitrocellulose membranes. Membranes were blocked in 3% bovine serum albumin in PBS containing 0.05% Tween-20. ERK1/2 phosphorylation was determined using 1 : 1000 dilution of the primary antibody followed by the appropriate HRP-labelled goat IgG (DAKO, UK) diluted 1 : 5000. Bands were visualized using enhanced chemiluminescence (ECL plus, Amersham) and quantified using a phosphor imager (Storm).
In this study, ERK activation was measured in CHO cells expressing GRP or V1A receptors in response to the appropriate neuropeptide or substance-P analogue. Activation was estimated in immunoblots from stimulated lysates using a phosphorylation state-specific antibody. […]

human GRP receptor = target: T1, human GRP receptor (Homo sapiens, UniProt P30550); experiment: Intracellular Ca2+ (FURA-2), CHO-GRP cells; format: cell-based; settings: in absence of GRP
T1 construct: CHO-K1 cells were transfected with full-length human GRP receptor or human V1A receptor; expressed in transfected cells
T1 sequence (P30550 whole entry): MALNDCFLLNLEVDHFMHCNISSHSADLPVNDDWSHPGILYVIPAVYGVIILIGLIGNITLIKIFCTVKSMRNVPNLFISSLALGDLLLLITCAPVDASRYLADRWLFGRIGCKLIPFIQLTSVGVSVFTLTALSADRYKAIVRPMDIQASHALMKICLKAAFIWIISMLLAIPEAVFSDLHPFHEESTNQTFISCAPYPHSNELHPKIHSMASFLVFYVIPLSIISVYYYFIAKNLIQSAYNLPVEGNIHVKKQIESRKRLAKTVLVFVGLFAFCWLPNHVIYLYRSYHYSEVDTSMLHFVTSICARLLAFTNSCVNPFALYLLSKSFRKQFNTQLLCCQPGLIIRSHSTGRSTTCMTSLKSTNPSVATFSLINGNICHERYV
Procedure: (§8) Cells were trypsinised and loaded with fura-2-tetraacetoxymethylester AME (FURA-2-AM, 1 μM) in calcium-free Hank's balanced salt solution for 10 min at 37°C. The cells were pelleted and resuspended in 2 ml of Hank's balanced salt solution containing 1.8 mM CaCl2. Fluorescence was recorded in a fluorescence spectrophotometer (Perkin Elmer). Alternate dual wavelength excitation at 380 and 410 nm allowed ratiometric analysis of bound and unbound FURA-2AM when measured at 505 nm. [Ca^2+] was calculated according to the equation [Ca^2+]=K(F−Fmin)/(Fmax−F), where F is the ratio of the unknown sample, Fmax is the ratio after the addition of 0.1% Triton X-100 and Fmin is the ratio after Ca^2+ chelation with 10 mM EGTA. K is the dissociation constant for Fura-2, which is 224 nM.
(§9) Quiescent GRP (A, B) or V1A (C, D) receptor expressing CHO cells were incubated with FURA-2AM for 15 min at 37°C and ratiometric fluorescence monitored at 37°C. […] Concentration–response curves to vasopressin were carried out in control cells and in cells treated with 1 or 10 μM SP-D (C) or SP-G (D). Results are expressed as % maximum control response to neuropeptide and represent the mean±s.e.m. of four experiments.

[3] = tested on: V1A receptor expressing CHO-K1 cells; experiment: Clonogenic assay in semisolid media, V1A receptor expressing cells; format: cell-based; settings: 30 μM, 0.3% agar, 1% FCS, 8 days
Procedure: (§4) CHO-K1 (2x10^4) viable cells were mixed with DMEM containing 0.3% agarose in the presence or absence of mediators and layered over a solid base of 0.5% agarose in DMEM in 35 mm plastic dishes. The cultures were incubated at 37°C for 1–10 days, and then stained with 1 mg ml^−1 nitro-blue tetrazolium (NBT, Sigma) overnight at 37°C. Colonies from 10 separate fields were counted using a microscope with a × 4 objective. Cloning efficiency is calculated as the percentage of original number of seeded cells forming colonies of >6 cells.
(§5) Figure 3 Effect of SP-D and SP-G on clonal growth. (A) Cells were grown in 0.3% agar with 1% FCS for 8 days in the presence or absence (open bar) of 30 μM SP-D (black bar) or SP-G (grey bar). […] Aggregation assay. (B) Wild-type, GRPR-transfected and V1AR-transfected CHO-K1 cells were plated into low adhesion tissue culture plates on top of a layer of 0.5% agar in DMEM containing 5% FCS at a density of 5 × 10^4 ml^−1 in the presence of varying concentrations of SP-G. Cells were maintained in culture for 7 days, briefly trypsinised to dissagregate clusters and viable cells counted by propidium iodide exclusion.

human V1A receptor [4] = target: T2, human V1A receptor (Homo sapiens, UniProt P37288); experiment: Intracellular Ca2+ (FURA-2), V1A-expressing CHO cells; format: cell-based; settings: in absence of AVP
T2 construct: CHO-K1 cells were transfected with full-length human GRP receptor or human V1A receptor; expressed in transfected cells
T2 sequence (P37288 whole entry): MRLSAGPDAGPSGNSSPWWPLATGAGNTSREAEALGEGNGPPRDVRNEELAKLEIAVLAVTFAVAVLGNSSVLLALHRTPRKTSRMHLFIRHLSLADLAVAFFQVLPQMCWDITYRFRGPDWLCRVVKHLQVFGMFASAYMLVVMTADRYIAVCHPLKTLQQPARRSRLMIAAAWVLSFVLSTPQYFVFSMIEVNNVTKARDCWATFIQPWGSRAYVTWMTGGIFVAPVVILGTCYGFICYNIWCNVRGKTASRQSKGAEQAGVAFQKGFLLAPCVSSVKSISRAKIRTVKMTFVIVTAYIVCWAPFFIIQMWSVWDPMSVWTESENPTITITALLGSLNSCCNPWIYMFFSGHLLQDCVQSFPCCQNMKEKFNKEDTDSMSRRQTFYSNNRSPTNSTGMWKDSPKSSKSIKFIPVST
Procedure: as §8, §9

[5] = tested on: vector control CHO-K1 cells; experiment: Clonogenic assay in semisolid media, vector control cells; format: cell-based; settings: 30 μM, 0.3% agar, 1% FCS, 8 days
Procedure: as §4, §5

[6] = tested on: ERK phosphorylation in GRP receptor expressing CHO cells; experiment: ERK phosphorylation (Western blot), GRP receptor expressing CHO cells; format: cell-based; settings: for maximal stimulation of ERK: at 50 μM
Procedure: as §3
(§6) In this study, ERK activation was measured in CHO cells expressing GRP or V1A receptors in response to the appropriate neuropeptide or substance-P analogue. Activation was estimated in immunoblots from stimulated lysates using a phosphorylation state-specific antibody. Lysates from quiesced cells stimulated for […] with either neuropeptide or SP-D or SP-G were separated on 12% gels and blotted for pERK2 or total ERK1/2.
Figure 6 (A) ERK phosphorylation by neuropeptides. Quiescent GRP (left) or V1A (right) receptor expressing CHO cells were stimulated for 5 min with neuropeptide at the indicated concentrations. […] Representative Western blots are shown. Bar graphs represent the mean optical density (mean±s.e.m.) of four separate experiments. (B) ERK phosphorylation by substance-P analogues. Quiescent GRP (left) or V1A (right) receptor expressing CHO cells were stimulated for 5 min with SP-D (filled bars) or SP-G (open bars) at the indicated concentrations. […] Representative Western blots are shown. Bar graphs represent the mean optical density (mean±s.e.m.) of four separate experiments.
Figure 7 Effect of pertussis toxin (PTX) on ERK phosphorylation. Confluent cultures of GRP (left) or V1A (right) receptor expressing CHO cells were quiesced overnight in the presence or absence of 100 ng ml^−1 pertussis toxin. Cells were stimulated for 5 min with 30 μM SP-D or SP-G or 1 nM neuropeptide as indicated. […] Representative Western blots are shown.

[7] = tested on: V1AR-transfected CHO-K1 cells; experiment: Aggregation assay (anchorage-independent growth), V1AR-transfected cells; format: cell-based; settings: low adhesion plates, 5% FCS, 7 days, viable cells counted
Procedure: (§7) CHO-K1 cells were suspended in DMEM in the presence of 5% FCS and seeded into low adhesion tissue culture plates on top of a layer (1 ml) of 0.5% agar. […] Cells were maintained in culture for 7 days briefly trypsinised to disaggregate clusters and viable cells counted.
as §5

[8] = tested on: ERK phosphorylation in V1A receptor expressing CHO cells; experiment: ERK phosphorylation (Western blot), V1A receptor expressing CHO cells; format: cell-based; settings: for stimulation of ERK: at 50 μM
Procedure: as §3, §6
Figure 6 (A) ERK phosphorylation by neuropeptides. Quiescent GRP (left) or V1A (right) receptor expressing CHO cells were stimulated for 5 min with neuropeptide at the indicated concentrations. […] Representative Western blots are shown. Bar graphs represent the mean optical density (mean±s.e.m.) of four separate experiments. (B) ERK phosphorylation by substance-P analogues. Quiescent GRP (left) or V1A (right) receptor expressing CHO cells were stimulated for 5 min with SP-D (filled bars) or SP-G (open bars) at the indicated concentrations. […] Representative Western blots are shown. […]

[9] = tested on: GRP receptor expressing CHO-K1 cells; experiment: Clonogenic assay in semisolid media, GRP receptor expressing cells; format: cell-based; settings: 30 μM, 0.3% agar, 1% FCS, 8 days
Procedure: as §4, §5

[10] = tested on: GRPR-transfected CHO-K1 cells; experiment: Aggregation assay (anchorage-independent growth), GRPR-transfected cells; format: cell-based; settings: low adhesion plates, 5% FCS, 7 days, viable cells counted
Procedure: as §7, §5

[11] = design: method as in Clive et al, 2001; settings: at therapeutic plasma concentrations; ref Clive et al, 2001; cited from earlier work
human V1A receptor [12] = target: T2, human V1A receptor; experiment: Receptor binding, [125I]-AVP, CHO-K1-V1Ar cells; settings: V1A over GRP receptor, from Ki
Procedure: CHO-K1 cells were maintained in DMEM supplemented with 10% (v v^−1) foetal bovine serum (heat-inactivated at 57°C for 1 h) 50 U ml^−1 penicillin, 50 μg ml^−1 streptomycin and 5 μg ml^−1 L-glutamine in a humidified atmosphere of 5% CO2:95% air at 37°C. CHO-K1 cells were transfected with full-length human GRP receptor or human V1A receptor using lipofectamine plus (Invitrogen) as per the manufacturer's instructions. Stable cell cultures were maintained in the presence of 400 μg ml^−1 G418-sulphate.
The binding parameters Kd and Bmax were calculated from competition binding isotherms with unlabelled ligand ([DeBlasi et al, 1989]).

CHO-GRPr cells = experiment: Chemosensitivity, MTT assay, GRPr cells; format: cell-based
Procedure: as §1, §2

CHO-WT cells = experiment: Chemosensitivity, MTT assay, wild-type cells; format: cell-based; settings: 48 h, absence of serum; read-out: IC50, inhibition of proliferation (MTT)
Procedure: as §1, §2

[13] = 48 h, absence of serum, read-out: IC50, inhibition of proliferation (MTT)
[14] = 48 h serum-free, no neuropeptide, read-out: IC50 (MTT), control cells of neuropeptide protection experiment

NC(=O)CC[C@@H]1NC(=O)[C@H](Cc2ccccc2)NC(=O)[C@H](Cc2ccc(O)cc2)NC(=O)[C@@H](N)CSSC[C@@H](C(=O)N2CCC[C@H]2C(=O)N[C@@H](CCCN=C(N)N)C(=O)NCC(N)=O)NC(=O)[C@H](CC(N)=O)NC1=O [AVP, arginine vasopressin]
increase in MTT accumulation compared to control cells (CHO-V1Ar cells; 50 nM neuropeptide, at 40 μg ml^−1 etoposide, 48 h): 92%

CSCC[C@H](NC(=O)[C@H](CC(C)C)NC(=O)[C@H](Cc1c[nH]cn1)NC(=O)CNC(=O)[C@@H](NC(=O)[C@H](C)NC(=O)[C@H](Cc1c[nH]c2ccccc12)NC(=O)[C@H](Cc1c[nH]cn1)NC(=O)[C@H](CC(N)=O)NC(=O)CNC(=O)[C@H](CCCNC(=N)N)NC(=O)[C@@H]1CCCN1C(=O)[C@H](Cc1ccc(O)cc1)NC(=O)[C@H](CCSC)NC(=O)[C@H](CCCCN)NC(=O)[C@@H](NC(=O)[C@H](CC(C)C)NC(=O)[C@@H](NC(=O)[C@@H](NC(=O)CNC(=O)CNC(=O)CNC(=O)[C@H](C)NC(=O)[C@@H]1CCCN1C(=O)[C@H](CC(C)C)NC(=O)[C@@H]1CCCN1C(=O)[C@@H](N)C(C)C)[C@@H](C)O)C(C)C)[C@@H](C)O)C(C)C)C(N)=O [GRP, gastrin-releasing peptide]
change in [Ca2+]i [1]: neither GRP nor AVP produced a significant change
stimulation of ERK phosphorylation [2]: Neither AVP nor GRP produced any stimulation

CC(C)C[C@H](NC(=O)[C@H](CC(C)C)NC(=O)[C@@H](Cc1c[nH]c2ccccc12)NC(=O)[C@H](Cc1ccccc1)NC(=O)[C@@H](Cc1c[nH]c2ccccc12)NC(=O)[C@H](CCC(N)=O)NC(=O)[C@@H](Cc1ccccc1)NC(=O)[C@@H]1CCCN1C(=O)[C@H](CCCCN)NC(=O)[C@@H]1CCCN1C(=O)[C@H](N)CCCNC(=N)N)C(N)=O [SP-D, [D-Arg^1,D-Phe^5,D-Trp^7,9,Leu^11]-substance-P] (H-[dR]PKP[dF]Q[dW]F[dW]LL-NH2; N-terminus and C-terminus assumed)
change in [Ca2+]i on their own (human GRP receptor): no change
colony formation [3]: significantly reduced colony formation
direct mobilisation of intracellular calcium (human V1A receptor [4]): did not mobilise intracellular calcium directly
cloning efficiency [5]: no effect
concentration at which activation of ERK was evident [6]: 3 µM
effect of pertussis toxin pretreatment on ERK activation by the substance ([6]; 100 ng ml^−1 PTX overnight, bombesin, 10 μM SP-D, 1 μM LPA): completely abolished
maximal stimulation of ERK [6]: 2.8 fold
cell growth in aggregation assay [7]: able to inhibit cell growth
stimulation of ERK [8]: 2 fold
colony formation [9]: significantly reduced colony formation
cell growth in aggregation assay [10]: able to inhibit cell growth

CSCC[C@H](NC(=O)[C@H](CC(C)C)NC(=O)[C@@H](Cc1c[nH]c2ccccc12)NC(=O)[C@H](Cc1ccccc1)N(C)C(=O)[C@@H](Cc1c[nH]c2ccccc12)NC(=O)[C@@H](N)CCCNC(=N)N)C(N)=O [SP-G, [Arg^6,D-Trp^7,9,N^mePhe^8]-substance-P (6–11)] (H-R[dW][NMeF][dW]LM-NH2; N-terminus and C-terminus assumed)
change in [Ca2+]i on their own (human GRP receptor): no change
colony formation [3]: significantly reduced colony formation
direct mobilisation of intracellular calcium (human V1A receptor [4]): did not mobilise intracellular calcium directly
cloning efficiency [5]: no effect
toxicity in phase I clinical trial [11]: minimal toxicity
maximal stimulation of ERK [6]: 2.1 fold
cell growth in aggregation assay [7]: able to inhibit cell growth
effect of pertussis toxin pretreatment on ERK activation by the substance ([8]; 100 ng ml^−1 PTX overnight, AVP, 20 μM SP-G, 1 μM LPA): completely inhibited
stimulation of ERK [8]: 4.3 fold
selectivity for the V1A receptor (human V1A receptor [12]): six
colony formation [9]: significantly reduced colony formation
cell growth in aggregation assay [10]: able to inhibit cell growth

COc1cc([C@@H]2c3cc4c(cc3[C@@H](O[C@@H]3O[C@@H]5CO[C@@H](C)O[C@H]5[C@H](O)[C@H]3O)[C@H]3COC(=O)[C@H]23)OCO4)cc(OC)c1O [etoposide]
IC50 (CHO-GRPr cells; [13]): 8.1 ± 2.3 µg/mL (≈ 13.8 µM)
IC50 (CHO-GRPr cells; [14]): 6.3 µg/mL (≈ 10.7 µM)
IC50 (CHO-WT cells): 12.4 ± 3.1 µg/mL (≈ 21.1 µM)
IC50 (CHO-V1Ar cells; [13]): 14.2 ± 4 µg/mL (≈ 24.1 µM)
IC50 (CHO-V1Ar cells; [14]): 13 µg/mL (≈ 22.1 µM)
